Results: patent US20230149336A1, “PREPARATION FOR USE AS ANTIOXIDANT” (Evonik Operations GmbH, priority 2020, published 2023)
Entries after “also recorded” stand apart in the source; their conditions may differ.

What was measured:
mice mesenteric arteries [1] = test: Vascular reactivity: vasorelaxation of phenylephrine-precontracted mice mesenteric arteries; assay type: cell-based; conditions: increasing doses (5-300 μg/mL), phenylephrine-precontracted vessels
Method: Second-order branches of the mesenteric arterial tree were removed from mice to perform vascular studies. […] First, an analysis of vascular reactivity curves was performed.

mice mesenteric arteries [2] = test: Angiotensin II-induced ROS formation (DHE, DHR123); assay type: cell-based; conditions: 50 μg/mL for 1 hour, then Angiotensin II 15 minutes; DHE and DHR123; mixtures ratio 1:1
Method: Dihydroethidium (DHE, Life Technologies) was used to evaluate production of reactive oxygen species (ROS) in mouse mesenteric arteries, as previously described. Briefly, vessels were incubated with 5 μM of DHE for 20 min and subsequently observed under a fluorescence microscope (Zeiss). Images were acquired by a digital camera system (Olympus Soft Imaging Solutions). […] After treatment, vessels were incubated with Krebs solution containing 5 μM DHR123 for 30 min at 37° C., and then washed two times with PBS prior to fluorescence measurement using a fluorescence microplate reader (TECAN infinite 200 Pro).
To investigate the capability of Healthberry 865® and the single anthocyanins contained on the modulation of oxidative stress, several methodological approaches were performed measuring both, total anti reactive oxygen species (ROS) capacity and their specific action on the modulation of the main machinery of ROS production, the activity of NADPH oxidase enzyme. […] The antioxidant vascular actions of single anthocyanins contained in Healthberry 865®: Delphinidin-3-rutinoside (D3-rut), Cyanidin-3-rutinoside (C3-rut), Delphinidin glucoside (DP3-glu), Cyanidin-3-glucoside (C3-glu), Petunidin-3-glucoside (PT3-glu), Delphinidin galactoside (DP3-gal), Peonidin-3-galactoside (PEO3-gal), Delphinidin-3-arabinoside (DP3-ara), Malvidin-3-galactoside (MAL3-gal), Malvidin-3-glucoside (MAL3-glu), Cyanidin-3-galactoside (C3-gal) and Cyanidin-3-arabinopyranoside (C3-arapy) were analyzed.
(§1) Vessels were pre-treated with single anthocyanins (50 μg/mL) for 1 hours and then stimulated with Angiotensin II for 15 minutes prior to the acquisition. (A) Measurement of ROS production by DHR123 in vessels treated with single anthocyanins and combination of anthocyanins mixed with a ratio 1:1. (B) NADPH oxidase activity in mesenteric arteries exposed to HB or single anthocyanins or combination of anthocyanins mixed with a ratio 1:1. Data are expressed as increase of chemiluminescence per minute.

NADPH oxidase (NOX) = test: NADPH oxidase activity after stimulation with Angiotensin II; assay type: cell-based, mice; conditions: chemiluminescence per minute, mixtures ratio 1:1
Method: Moreover, the analysis of NADPH oxidase (NOX) activity after stimulation with Angiotensin II, a gold-standard inducer of NOX activation was performed.
as §1

| Molecule | vasorelaxant action (mice mesenteric arteries [1]) | Angiotensin II-induced ROS formation (mice mesenteric arteries [2]) | NADPH oxidase (NOX) activity (NADPH oxidase (NOX)) |
| --- | --- | --- | --- |
| NCCCC[C@H](N)C(=O)O [L-Lysine] | did not evoke any vasorelaxant effect | – | – |
| COc1cc(-c2[o+]c3cc(O)cc(O)c3cc2O[C@@H]2O[C@H](CO)[C@H](O)[C@H](O)[C@H]2O)cc(OC)c1O [MAL3-gal, Malvidin-3-galactoside] | – | able to reproduce the antioxidant action of Healthberry 865® | able to reduce NOX activity |
| C[C@@H]1O[C@@H](OC[C@H]2O[C@@H](Oc3cc4c(O)cc(O)cc4[o+]c3-c3ccc(O)c(O)c3)[C@H](O)[C@@H](O)[C@@H]2O)[C@H](O)[C@H](O)[C@H]1O [C3-rut, Cyanidin-3-rutinoside] | – | able to reproduce the antioxidant action of Healthberry 865® | able to reduce NOX activity |
| OC[C@H]1O[C@@H](Oc2cc3c(O)cc(O)cc3[o+]c2-c2ccc(O)c(O)c2)[C@H](O)[C@@H](O)[C@@H]1O [C3-glu, Cyanidin-3-glucoside] | – | able to reproduce the antioxidant action of Healthberry 865® | able to reduce NOX activity; also recorded: the most powerful anthocyanins closer to the potent effect of Healthberry 865® |
| COc1cc(-c2[o+]c3cc(O)cc(O)c3cc2O[C@@H]2O[C@H](CO)[C@@H](O)[C@H](O)[C@H]2O)cc(OC)c1O [MAL3-glu, Malvidin-3-glucoside] | – | able to reproduce the antioxidant action of Healthberry 865® | able to reduce NOX activity; also recorded: the most powerful anthocyanins closer to the potent effect of Healthberry 865® |
| Peonidin-3-galactoside [PEO3-gal] | – | able to reproduce the antioxidant action of Healthberry 865® | able to reduce NOX activity |
| OC[C@H]1O[C@@H](Oc2cc3c(O)cc(O)cc3[o+]c2-c2cc(O)c(O)c(O)c2)[C@H](O)[C@@H](O)[C@@H]1O [DP3-glu, Delphinidin-3-glucoside] | – | able to reproduce the antioxidant action of Healthberry 865® | able to reduce NOX activity |
